Experimental data reported in ChEMBL document CHEMBL1201862, “PubChem BioAssay data set” (2004).
Active and inactive are the calls of the source.

Legend:
[1] = target: Glucose-6-phosphate 1-dehydrogenase (Homo sapiens, UniProt P11413); assay: human G6PD enzyme inhibitors, dose response, selectivity assay for P. falciparum G6PD inhibitor project, biochemical, fluorescence (AID 504792); assay type: functional
HeLa = assay: HeLa cell cytotoxicity, dose response, cytotoxicity control for MITF activator project, CellTiter-Glo luminescence, cherry-pick samples (AID 540259); assay type: functional, cell-based; settings: Homo sapiens
[2] = target: T1, Rac GTPase-activating protein 1 (Homo sapiens, UniProt Q9H0H5); assay: MgcRacGAP GTPase-activating activity inhibitors, confirmation, biochemical, ADP Hunter fluorescence, primary and confirmatory (AID 624330); assay type: functional
T1 sequence (Q9H0H5 whole entry): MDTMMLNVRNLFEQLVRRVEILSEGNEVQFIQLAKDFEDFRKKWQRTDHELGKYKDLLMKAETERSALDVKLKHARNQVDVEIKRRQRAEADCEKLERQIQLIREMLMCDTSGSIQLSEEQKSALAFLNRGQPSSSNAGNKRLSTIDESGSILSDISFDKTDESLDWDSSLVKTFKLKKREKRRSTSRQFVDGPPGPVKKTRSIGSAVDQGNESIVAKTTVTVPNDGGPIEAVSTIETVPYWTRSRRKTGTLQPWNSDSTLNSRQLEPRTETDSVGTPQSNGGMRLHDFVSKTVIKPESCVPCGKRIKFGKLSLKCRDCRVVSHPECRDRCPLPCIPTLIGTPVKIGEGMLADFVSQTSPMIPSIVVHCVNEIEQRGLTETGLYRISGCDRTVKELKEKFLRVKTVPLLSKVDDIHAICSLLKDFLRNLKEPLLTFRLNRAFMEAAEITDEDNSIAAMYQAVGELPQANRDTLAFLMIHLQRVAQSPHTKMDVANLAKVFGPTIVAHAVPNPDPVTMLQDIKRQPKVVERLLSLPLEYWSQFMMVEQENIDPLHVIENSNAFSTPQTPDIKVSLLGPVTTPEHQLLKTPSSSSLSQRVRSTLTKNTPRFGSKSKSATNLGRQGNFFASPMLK

[3] = target: T2, Polyadenylate-binding protein 1 (Homo sapiens, UniProt P11940); assay: PABP1 MLLE–PAM2 interaction inhibitors, dose response, miRNA deadenylation inhibitor project, biochemical, fluorescence polarization, Cy5-PAM2 peptide, secondary (AID 602260); assay type: functional; settings: read-out: IC50_Mean
T2 sequence (P11940 whole entry): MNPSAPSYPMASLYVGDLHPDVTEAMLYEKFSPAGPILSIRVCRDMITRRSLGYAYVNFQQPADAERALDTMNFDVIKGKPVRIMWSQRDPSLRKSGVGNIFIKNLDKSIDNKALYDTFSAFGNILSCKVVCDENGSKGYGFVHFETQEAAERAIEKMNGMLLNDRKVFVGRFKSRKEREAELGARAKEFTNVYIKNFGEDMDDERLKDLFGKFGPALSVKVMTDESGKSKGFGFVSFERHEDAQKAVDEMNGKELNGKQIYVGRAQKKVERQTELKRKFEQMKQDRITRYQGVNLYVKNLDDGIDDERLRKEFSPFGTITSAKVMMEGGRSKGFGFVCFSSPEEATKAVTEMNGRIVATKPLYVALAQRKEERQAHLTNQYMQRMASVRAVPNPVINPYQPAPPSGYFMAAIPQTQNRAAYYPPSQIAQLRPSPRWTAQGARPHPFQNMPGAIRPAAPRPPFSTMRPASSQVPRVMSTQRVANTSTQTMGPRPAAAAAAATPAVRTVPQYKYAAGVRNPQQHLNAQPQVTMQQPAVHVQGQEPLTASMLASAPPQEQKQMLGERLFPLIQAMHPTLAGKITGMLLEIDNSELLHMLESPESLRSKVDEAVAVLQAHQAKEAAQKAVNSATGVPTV

Protein skinhead-1 = target: T3, Protein skinhead-1 (Caenorhabditis elegans, UniProt P34707); assay type: functional
T3 sequence (P34707 whole entry): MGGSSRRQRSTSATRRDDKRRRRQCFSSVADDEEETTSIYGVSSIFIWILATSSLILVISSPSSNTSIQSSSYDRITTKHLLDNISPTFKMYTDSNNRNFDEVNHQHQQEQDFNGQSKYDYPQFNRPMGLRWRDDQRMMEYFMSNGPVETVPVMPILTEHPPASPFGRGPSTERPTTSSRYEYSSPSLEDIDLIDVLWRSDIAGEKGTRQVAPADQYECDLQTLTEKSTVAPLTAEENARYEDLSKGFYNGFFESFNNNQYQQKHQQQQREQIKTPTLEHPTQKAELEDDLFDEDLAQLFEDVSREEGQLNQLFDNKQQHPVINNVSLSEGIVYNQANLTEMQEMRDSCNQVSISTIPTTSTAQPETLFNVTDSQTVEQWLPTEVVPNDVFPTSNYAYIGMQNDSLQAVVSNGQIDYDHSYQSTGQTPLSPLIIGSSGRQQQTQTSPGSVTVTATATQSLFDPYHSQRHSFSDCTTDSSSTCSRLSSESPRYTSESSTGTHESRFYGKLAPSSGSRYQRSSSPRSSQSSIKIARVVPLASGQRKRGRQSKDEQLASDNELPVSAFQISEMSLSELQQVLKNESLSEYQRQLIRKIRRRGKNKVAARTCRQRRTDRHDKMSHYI

[4] = target: T2, Polyadenylate-binding protein 1; assay: PABP1 MLLE–PAM2 binding inhibitor potency, dose response, biochemical, fluorescence polarization, FITC-PAM2 peptide (AID 602259); assay type: functional; settings: read-out: IC50_Mean
INS1 = assay: beta cell apoptosis inhibitors, cytokine rescue, dose response, luminescence, retest (AID 449756); assay type: functional, cell-based; settings: Rattus norvegicus;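 note: cell death triggered by IL-1 beta plus TNF-alpha plus IFN-gamma mixture; protective hits raise ATP signal compared with cytokine alone wells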
[5] = target: T4, Apoptotic protease-activating factor 1 (Homo sapiens, UniProt O14727); assay type: functional
T4 sequence (O14727 whole entry): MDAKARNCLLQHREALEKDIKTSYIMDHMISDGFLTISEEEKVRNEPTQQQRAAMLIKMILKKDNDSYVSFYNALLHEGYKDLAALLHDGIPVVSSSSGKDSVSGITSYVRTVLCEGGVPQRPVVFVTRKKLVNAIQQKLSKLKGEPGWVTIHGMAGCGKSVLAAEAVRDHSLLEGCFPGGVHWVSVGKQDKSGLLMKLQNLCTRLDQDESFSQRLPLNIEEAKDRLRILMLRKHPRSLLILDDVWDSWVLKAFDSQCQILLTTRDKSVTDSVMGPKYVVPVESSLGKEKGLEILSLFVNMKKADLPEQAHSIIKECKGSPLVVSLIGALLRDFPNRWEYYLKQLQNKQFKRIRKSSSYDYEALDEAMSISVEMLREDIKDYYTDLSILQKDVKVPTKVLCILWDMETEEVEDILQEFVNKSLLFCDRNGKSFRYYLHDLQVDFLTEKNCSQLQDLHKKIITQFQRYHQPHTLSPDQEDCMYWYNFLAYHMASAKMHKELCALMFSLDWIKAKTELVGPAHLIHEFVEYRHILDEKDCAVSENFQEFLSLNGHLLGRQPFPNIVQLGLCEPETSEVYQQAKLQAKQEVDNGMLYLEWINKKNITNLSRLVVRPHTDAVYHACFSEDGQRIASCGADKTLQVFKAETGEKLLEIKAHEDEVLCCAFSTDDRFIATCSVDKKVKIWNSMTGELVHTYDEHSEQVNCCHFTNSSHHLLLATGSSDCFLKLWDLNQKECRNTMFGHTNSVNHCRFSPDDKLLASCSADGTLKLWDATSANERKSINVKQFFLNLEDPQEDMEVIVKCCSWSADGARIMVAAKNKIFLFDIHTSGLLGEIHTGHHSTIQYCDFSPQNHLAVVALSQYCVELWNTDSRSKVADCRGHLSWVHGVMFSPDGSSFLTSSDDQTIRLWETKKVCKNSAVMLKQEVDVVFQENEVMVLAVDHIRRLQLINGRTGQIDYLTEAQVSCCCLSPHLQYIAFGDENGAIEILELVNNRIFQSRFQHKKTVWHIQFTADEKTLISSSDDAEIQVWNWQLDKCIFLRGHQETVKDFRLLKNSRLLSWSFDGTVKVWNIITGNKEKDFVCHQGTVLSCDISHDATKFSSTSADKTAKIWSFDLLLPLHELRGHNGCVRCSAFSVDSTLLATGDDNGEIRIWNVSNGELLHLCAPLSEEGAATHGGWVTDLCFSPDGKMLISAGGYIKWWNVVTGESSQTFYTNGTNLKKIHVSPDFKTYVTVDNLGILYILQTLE

[6] = target: Adenosylmethionine-8-amino-7-oxononanoate aminotransferase (Mycobacterium tuberculosis, UniProt P9WQ81); assay: Mycobacterium tuberculosis BioA enzyme inhibitor Measured in Biochemical System Using Plate Reader - 2163-02_Inhibitor_Dose_CherryPick_Activity.; assay type: functional, Mycobacterium tuberculosis UT205
Adenosylmethionine-8-amino-7-oxononanoate aminotransferase, sequence (P9WQ81 whole entry): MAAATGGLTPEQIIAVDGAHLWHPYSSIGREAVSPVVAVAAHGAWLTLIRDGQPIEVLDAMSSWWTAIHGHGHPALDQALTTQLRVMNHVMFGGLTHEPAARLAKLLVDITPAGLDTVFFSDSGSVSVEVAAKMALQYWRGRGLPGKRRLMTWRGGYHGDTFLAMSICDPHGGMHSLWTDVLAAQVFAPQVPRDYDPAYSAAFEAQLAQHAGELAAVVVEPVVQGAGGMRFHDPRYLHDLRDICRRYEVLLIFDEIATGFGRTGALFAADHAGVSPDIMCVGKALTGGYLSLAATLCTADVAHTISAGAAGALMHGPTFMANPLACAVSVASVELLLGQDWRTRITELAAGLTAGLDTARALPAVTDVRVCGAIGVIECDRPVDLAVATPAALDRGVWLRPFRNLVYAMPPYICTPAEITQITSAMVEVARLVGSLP

[7] = target: Beta-2 adrenergic receptor (Homo sapiens, UniProt P07550); assay: beta2AR agonists driving receptor internalization, dose response, cell-based, FAP fluorogen, flow cytometry, cherry pick 1 (AID 588763); assay type: functional
Beta-2 adrenergic receptor, sequence (P07550 whole entry): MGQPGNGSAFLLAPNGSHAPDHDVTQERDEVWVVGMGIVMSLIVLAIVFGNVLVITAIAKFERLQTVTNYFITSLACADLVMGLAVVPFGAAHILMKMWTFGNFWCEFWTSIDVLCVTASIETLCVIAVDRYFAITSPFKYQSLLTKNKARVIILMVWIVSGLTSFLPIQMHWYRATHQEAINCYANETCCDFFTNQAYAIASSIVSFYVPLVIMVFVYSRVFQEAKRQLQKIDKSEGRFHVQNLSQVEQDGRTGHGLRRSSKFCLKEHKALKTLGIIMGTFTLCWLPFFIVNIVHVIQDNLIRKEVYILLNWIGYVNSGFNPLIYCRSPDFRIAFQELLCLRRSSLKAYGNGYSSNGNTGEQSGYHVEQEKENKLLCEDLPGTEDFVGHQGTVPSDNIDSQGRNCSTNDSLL

BJ [8] = assay: cells; assay type: functional, cell-based; settings: Homo sapiens
BJ [9] = assay: cytotoxicity toward BJ-TERT-LT-ST fibroblasts, dose response, cell-based, RAS-independent, luminescence (AID 1935); assay type: functional; settings: Homo sapiens;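 note: BJ fibroblasts immortalized with TERT plus LT and ST oncogenes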
BJ [10] = assay: cytotoxicity toward Ras-transformed BJeLR fibroblasts, dose response, cell-based, alamar blue fluorescence, cherrypicked samples (AID 2631); assay type: functional; settings: Homo sapiens;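 note: confirmatory dose-response assay in RAS-dependent BJ fibroblasts engineered with TERT, LT and ST, with cytotoxicity read by fluorescence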
[11] = Luminescence Cell-Based Dose Retest to Confirm Inhibitors of Cancer Stem Cells. [Related pubchem assays (depositor defined):AID2717, AID2721]; assay type: functional; settings: Homo sapiens
BJ [12] = assay: cytotoxicity toward BJ-TERT fibroblasts, dose response, cell-based, RAS-independent, luminescence (AID 1933); assay type: functional; settings: Homo sapiens
[13] = cytotoxicity toward DRD oncogenic fibroblasts, dose response, cell-based, non-viral oncogenic, luminescence (AID 1934); assay type: functional; settings: Homo sapiens
[14] = target: T5, Testis-specific serine/threonine-protein kinase 2 (Homo sapiens, UniProt Q96PF2); assay type: functional;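 note: part of the Navigating the Kinome panel, target entry STK22B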
T5 sequence (Q96PF2 whole entry): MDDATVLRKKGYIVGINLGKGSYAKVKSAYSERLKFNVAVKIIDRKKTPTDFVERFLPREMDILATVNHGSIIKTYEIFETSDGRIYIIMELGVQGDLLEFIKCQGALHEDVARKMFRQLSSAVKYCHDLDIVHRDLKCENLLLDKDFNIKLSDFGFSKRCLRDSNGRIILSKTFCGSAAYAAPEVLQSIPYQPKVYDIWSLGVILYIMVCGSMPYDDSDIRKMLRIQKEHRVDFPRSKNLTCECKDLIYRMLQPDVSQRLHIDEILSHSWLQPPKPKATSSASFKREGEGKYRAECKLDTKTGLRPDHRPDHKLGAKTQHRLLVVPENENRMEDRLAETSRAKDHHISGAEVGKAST

[15] = target: T6, Tyrosine-protein kinase JAK3 (Homo sapiens, UniProt P52333); assay type: functional
T6 sequence (P52333 whole entry): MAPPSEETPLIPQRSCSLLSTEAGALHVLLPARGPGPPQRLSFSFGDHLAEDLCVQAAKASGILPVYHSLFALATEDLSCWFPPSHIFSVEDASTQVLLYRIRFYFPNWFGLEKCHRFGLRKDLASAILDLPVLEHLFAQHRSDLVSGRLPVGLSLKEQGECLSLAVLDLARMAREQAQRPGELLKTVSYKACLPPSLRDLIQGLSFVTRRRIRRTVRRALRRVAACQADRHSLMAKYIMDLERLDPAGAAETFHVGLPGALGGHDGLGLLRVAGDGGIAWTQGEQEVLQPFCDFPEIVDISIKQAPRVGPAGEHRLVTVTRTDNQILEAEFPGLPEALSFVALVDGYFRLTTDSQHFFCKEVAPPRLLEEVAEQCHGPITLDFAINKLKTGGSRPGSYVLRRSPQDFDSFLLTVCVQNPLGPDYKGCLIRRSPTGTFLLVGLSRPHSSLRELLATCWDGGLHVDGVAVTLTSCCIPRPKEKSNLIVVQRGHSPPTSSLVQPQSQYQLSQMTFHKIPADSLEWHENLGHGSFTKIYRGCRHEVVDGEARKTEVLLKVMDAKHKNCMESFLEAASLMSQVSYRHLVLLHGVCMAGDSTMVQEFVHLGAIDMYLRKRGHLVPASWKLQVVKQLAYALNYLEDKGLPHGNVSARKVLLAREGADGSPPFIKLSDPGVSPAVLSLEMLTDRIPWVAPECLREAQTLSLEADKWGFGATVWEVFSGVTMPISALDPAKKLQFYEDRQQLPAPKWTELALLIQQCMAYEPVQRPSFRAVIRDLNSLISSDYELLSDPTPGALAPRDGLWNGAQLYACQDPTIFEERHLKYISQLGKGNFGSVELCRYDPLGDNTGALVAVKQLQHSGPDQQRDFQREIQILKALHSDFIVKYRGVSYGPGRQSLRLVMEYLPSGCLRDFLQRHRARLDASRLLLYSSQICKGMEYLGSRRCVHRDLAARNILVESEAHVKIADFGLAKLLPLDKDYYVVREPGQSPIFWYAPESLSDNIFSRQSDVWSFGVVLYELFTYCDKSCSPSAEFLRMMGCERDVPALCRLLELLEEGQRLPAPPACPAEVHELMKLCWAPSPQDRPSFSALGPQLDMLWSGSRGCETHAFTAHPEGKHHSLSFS

Glucose-6-phosphate 1-dehydrogenase, sequence (P11413 whole entry): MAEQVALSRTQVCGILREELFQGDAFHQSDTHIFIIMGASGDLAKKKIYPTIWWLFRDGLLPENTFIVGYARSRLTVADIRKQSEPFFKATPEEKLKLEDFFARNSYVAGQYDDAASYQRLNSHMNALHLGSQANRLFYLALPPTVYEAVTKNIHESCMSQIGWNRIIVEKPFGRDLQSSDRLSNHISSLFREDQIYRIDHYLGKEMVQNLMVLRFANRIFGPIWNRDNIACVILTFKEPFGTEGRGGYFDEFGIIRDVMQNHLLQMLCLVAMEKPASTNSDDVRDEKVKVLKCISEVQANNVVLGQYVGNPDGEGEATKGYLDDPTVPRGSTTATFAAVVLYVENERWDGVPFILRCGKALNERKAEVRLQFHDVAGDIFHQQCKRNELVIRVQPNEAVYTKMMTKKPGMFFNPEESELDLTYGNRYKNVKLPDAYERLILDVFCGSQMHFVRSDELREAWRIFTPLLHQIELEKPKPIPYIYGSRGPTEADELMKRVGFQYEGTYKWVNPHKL

**Q.** What does the source list for `COc1ccc(/C=C/c2nc3ccccc3n2Cc2ccc(OC)c(OC)c2)cc1`?
**A.** IC50 [1]: > 80 µM (inactive); AC50 (HeLa): 37 µM (active)

**Q.** What does the source list for `c1cc(CNc2ccc3c(c2)OCO3)ccn1`?
**A.** IC50 [2]: 63.8 µM (active); IC50 [1]: > 80 µM (inactive); IC50 [3]: > 66 µM (inactive); IC50 (Protein skinhead-1): > 100 µM (inactive); IC50 [4]: 23.5 µM (inactive)

**Q.** For `CCCCCn1cc[n+](C2=C([N-]S(=O)(=O)c3ccc(Cl)cc3)C(=O)c3ccccc3C2=O)c1`, which AC50 (INS1) is on record?
**A.** 3.09 µM (active)

**Q.** And the IC50 [5]?
**A.** 30.2 µM (active)

**Q.** For `CCCOC(=O)c1cccc(NC(=O)c2cccnc2)c1`, which AC50 [6] is on record?
**A.** 6.09 µM (active)

**Q.** For `Cc1cc(C)n2nc(C(=O)Nc3cccc(S(=O)(=O)N(C)c4ccccc4)c3)nc2n1`, which EC50 [7] is on record?
**A.** 0.0342 µM (active)

**Q.** What does the source list for `CN[C@H]1CCc2cc(OC)c(OC)c(OC)c2-c2ccc(N(C)CC(OC)OC)c(=O)cc21`?
**A.** EC50 (BJ [8]): 21.4 µM (active); EC50 (BJ [9]): 2.98 µM (inconclusive); EC50 (BJ [10]): 0.578 µM (inconclusive); AC50 [11]: 1.86 µM (active); EC50 (BJ [12]): 3.42 µM (active); EC50 [13]: 2.86 µM (active)

**Q.** Which EC50 [7] does the source give for `CCc1ccccc1N(C)S(=O)(=O)c1ccc2ncc(C(=O)O)c(O)c2c1` here?
**A.** 7.23 µM (active)

**Q.** With `Cc1ccc(O)c(NC(=O)c2cccc(NC(=O)c3ccco3)c2)c1` as the compound, how does the EC50 [7] read?
**A.** 0.132 µM (active)

**Q.** With `COc1ccc(C(=O)C2CCCN(C(=O)c3ccc(C(C)=O)s3)C2)c(C)c1` (configuration not stated) as the compound, how does the AC50 [6] read?
**A.** 1.7 µM (active)

**Q.** What does the source list for `Cc1[nH]nc2ccc(-c3cncc(OCC(N)Cc4ccccc4)c3)cc12` (configuration not stated)?
**A.** Ki [14]: > 1.58 µM (inactive); Ki [15]: > 1.58 µM (inactive)
